Data on one sequence can be found in publication PMC8962522, “Direct interaction of TrkA/CD44v3 is essential for NGF-promoted aggressiveness of breast cancer cells” (Journal of Experimental & Clinical Cancer Research : CR, 2022).

Test [1] deals with MDA-MB-231 xenograft tumors. The test can be described thus: MDA-MB-231 xenograft tumor growth in SCID mice. It is filed as in vivo. The settings on record: injected near the tumor five times in a 3-day interval, from mean tumor volume 100 mm^3; versus PBS; 10 mice per group. The method, then: MDA-MB-231 cells (2 × 10^6) were subcutaneously injected into the flanks of six-week-old female SCID mice. One month after injection, the mice were randomized into 2 groups and injected near the tumor with CD44v3 mimetic peptide 4 (P4) or not (control) five times in a 3-day interval. Tumor volume was determined throughout the experiment by measuring the length (l) and width (w) and was calculated as π/6 × l × w × […]. Animals were sacrificed using isoflurane anesthesia when the tumors reached a similar size, and the organs were immediately removed and stored in liquid nitrogen.
To assess the role of TrkA/CD44v3 in vivo, SCID mice were injected with MDA-MB-231 cells to generate xenografts. Primary tumor development and metastasis (to the lung, brain and liver) were analyzed (Fig. 6). […] The development of primary tumors was measured throughout the experiments. […] We also assessed the metastatic burden. […] Micrometastases were detected at the end of the experiment by PCR of human microglobulin in xenograft mice treated with or without the CD44v3 mimetic peptide (Fig. 6E). […]
Fig. 6 CD44v3 mimetic peptide 4 blocks MDA-MB-231 tumor growth and metastasis. […] Body weight (B) and tumor volume (C) were measured following CD44v3 mimetic peptide administration (10 mice per group). […]

For another test, the system named is CD44v3. Nature of the test: MST binding of P4 to CD44v3. Conditions: Supplementary Fig. 6C, listed as P4. The method, then:
MST was conducted using an NT.115 A Pico MST instrument (Nano Temper Technologies GmbH) equipped with red and blue filter sets. The TrkA-His tagged extracellular domain protein (Ala 34-Gly423) (9966-TK-050; R&D Systems, United Kingdom), diluted to 200 nM in PBS-T buffer (supplied by the vendor), was labeled using a Monolith His-Tag Labeling Kit with RED-Tris-NTA (Nano Temper). The RED-Tris-NTA dye was diluted in PBS-T to 100 nM. The mix was incubated at RT in the dark for 30 min. Next, an extract expressing CD44v3-labeled protein (CD44v3-His) and ligand and/or TrkA was mixed at a 1:1 ratio and incubated at RT in the dark for 15 min. For the binding check, peptides and TrkA-His were used. […] The data were analyzed using MO Control Software (Nano Temper).
To block the TrkA-CD44v3 association, 4 mimetic peptides of CD44v3 were designed corresponding to zone 1 [(K) STSSNTISAG], zone 2 (WEPNEENEDE), zone 3 (RDRHLSFSGSG) and zone 4 (IDDDEDFISST) (Fig. 2F & G). The binding capacities of the CD44v3 mimetic peptides to TrkA were then measured by MST (Fig. 2H). […] To confirm mimetic peptide 4 binding, we assessed its ability to bind TrkA using nanoscale differential scanning fluorimetry (nanoDSF; Supplementary Fig. 6A & B).
Supplementary file 13046_2022_2314_MOESM3_ESM.pdf: Additional file 3: Supplementary Figure 1. […] CD44v3 and CD44v6 levels at the plasma membrane were assessed by flow cytometry (A-D). […]

Entries after “also recorded” stand apart in the source; their conditions may differ.

“IDDDEDFISST [Peptide 4, mimetic peptide 4 (…) corresponding to the C-terminal region of CD44v3]”: the “tumor growth (in words)” value in test [1] is “significantly inhibited the growth of MDA-MB-231 cells in xenograft tumors”. Also, the “binding to CD44v3 (in words)” value in the test with CD44v3 is given as “we did not detect CD44v3/P4 binding; also recorded: binds to TrkA but not to CD44v3”.
